Where “and” joins values, the source holds several entries; their conditions need not be identical. Equal values may be shown once. Inconclusive results and toxic doses are left out. Rule as the data show it: active = T/C of 150% or more; inactive = T/C below 125%.
Tested on: L1210 leukemia ip in BDF1 mice, survival T/C
Assay: NCI In Vivo Anticancer Drug Screen. Data for tumor model L1210 Leukemia (intraperitoneal) in B6D2F1 (BDF1) mice
Conditions: endpoint: mean survival time, higher = longer survival
How it was run: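 In this screen, tumor-bearing mice given compound are compared to those given vehicle, and their survival values are reported as a treated-to-control quotient.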

[1] = dose: 100.0 mg/kg/injection, schedule: Q04DX003 (ip), vehicle: Klucel (hydroxypropylcellulose) (HPC)
[2] = dose: 200.0 mg/kg/injection, schedule: Q04DX003 (ip), vehicle: Klucel (hydroxypropylcellulose) (HPC)
[3] = dose: 400.0 mg/kg/injection, schedule: Q04DX003 (ip), vehicle: Klucel (hydroxypropylcellulose) (HPC)
[4] = dose: 100.0 mg/kg/injection, schedule: Q01DX009 (ip), vehicle: saline with Tween-80
[5] = dose: 200.0 mg/kg/injection, schedule: Q01DX009 (ip), vehicle: saline with Tween-80
[6] = dose: 100.0 mg/kg/injection, schedule: Q04DX003 (ip), vehicle: saline
[7] = dose: 200.0 mg/kg/injection, schedule: Q04DX003 (ip), vehicle: saline
[8] = dose: 400.0 mg/kg/injection, schedule: Q01DX009 (ip), vehicle: saline with Tween-80
[9] = dose: 400.0 mg/kg/injection, schedule: Q04DX003 (ip), vehicle: saline
[10] = dose: 100.0 mg/kg/injection, schedule: Q01DX001 (ip), vehicle: carboxymethylcellulose (CMC)
[11] = dose: 200.0 mg/kg/injection, schedule: Q01DX001 (ip), vehicle: carboxymethylcellulose (CMC)
[12] = dose: 400.0 mg/kg/injection, schedule: Q01DX001 (ip), vehicle: carboxymethylcellulose (CMC)
[13] = dose: 100.0 mg/kg/injection, schedule: Q04DX002 (ip), vehicle: saline
[14] = dose: 100.0 mg/kg/injection, schedule: Q01DX001 (ip), vehicle: saline with Tween-80
[15] = dose: 200.0 mg/kg/injection, schedule: Q01DX001 (ip), vehicle: saline with Tween-80
[16] = dose: 400.0 mg/kg/injection, schedule: Q01DX001 (ip), vehicle: saline with Tween-80
[17] = dose: 100.0 mg/kg/injection, schedule: Q01DX001 (ip), vehicle: saline
[18] = dose: 200.0 mg/kg/injection, schedule: Q01DX001 (ip), vehicle: saline
[19] = dose: 400.0 mg/kg/injection, schedule: Q01DX001 (ip), vehicle: saline
[20] = dose: 100.0 mg/kg/injection, schedule: Q01DX009 (ip), vehicle: Klucel (hydroxypropylcellulose) (HPC)
[21] = dose: 100.0 mg/kg/injection, schedule: Q04DX002 (ip), vehicle: Klucel (hydroxypropylcellulose) (HPC)
[22] = dose: 200.0 mg/kg/injection, schedule: Q01DX009 (ip), vehicle: Klucel (hydroxypropylcellulose) (HPC)
[23] = dose: 200.0 mg/kg/injection, schedule: Q04DX002 (ip), vehicle: Klucel (hydroxypropylcellulose) (HPC)
[24] = dose: 400.0 mg/kg/injection, schedule: Q04DX002 (ip), vehicle: Klucel (hydroxypropylcellulose) (HPC)
[25] = dose: 25.0 mg/kg/injection, schedule: Q04DX002 (ip), vehicle: saline
[26] = dose: 50.0 mg/kg/injection, schedule: Q04DX002 (ip), vehicle: saline
[27] = dose: 100.0 mg/kg/injection, schedule: Q04DX003 (ip), vehicle: saline with Tween-80

Measured: T/C

O=C(O)c1ccc([N+](=O)[O-])cc1-n1cccc1
inactive: [1] 95 % of control | [2] 98 % of control | [3] 88 % of control

CC(=O)Nc1ccc(N=CN(C)C)cc1
inactive: [4] 94 % of control | [5] 101 % of control

CC1C(=O)CCC2(C)CCC(C)(C)CC12 (stereo not drawn)
inactive: [4] 98 % of control | [6] 105 % of control | [5] 95 % of control | [7] 97 % of control | [8] 101 % of control | [9] 103 % of control

O=C(Nc1cc2c3ccccc3ccc2c2ccccc12)C(F)(F)F
inactive: [10] 91 % of control | [11] 92 % of control | [12] 97 % of control

CC(C)(C)OC(=O)N1C2C=CC(C2)N1C(=O)OC(C)(C)C
inactive: dose: 100.0 mg/kg/injection, schedule: Q01DX001 (ip), vehicle: other 101 % of control | [1] 102 % of control | dose: 200.0 mg/kg/injection, schedule: Q01DX001 (ip), vehicle: other 104 % of control | [2] 98 % of control | dose: 400.0 mg/kg/injection, schedule: Q01DX001 (ip), vehicle: other 96 % of control | [3] 109 % of control

Oc1c(CNCCCN2CCCC2)cc(Cl)c2cccnc12
inactive: [13] 97 % of control | dose: 200.0 mg/kg/injection, schedule: Q04DX002 (ip), vehicle: saline 97 % of control

Cc1ccc(Cl)cc1NC(=O)N1CCN(c2ccccc2)CC1
inactive: [14] 95 % of control | [4] 98 % of control and 103 % of control | dose: 100.0 mg/kg/injection, schedule: Q04DX002 (ip), vehicle: saline with Tween-80 120 % of control | [6] 101 % of control | [15] 87 % of control | [5] 100 % of control and 102 % of control | dose: 200.0 mg/kg/injection, schedule: Q04DX002 (ip), vehicle: saline with Tween-80 98 % of control and 86 % of control | [7] 90 % of control | [16] 100 % of control | [8] 92 % of control | dose: 400.0 mg/kg/injection, schedule: Q04DX002 (ip), vehicle: saline with Tween-80 95 % of control and 89 % of control | [9] 95 % of control

Nc1ccc(C(=O)Nc2cccc(S(=O)(=O)F)c2)cc1
inactive: [17] 107 % of control | [18] 106 % of control | [19] 90 % of control

Cc1cc(OC(=O)Nc2cc(Cl)ccc2C)c(C(C)C)cc1Cl
inactive: dose: 100.0 mg/kg/injection, schedule: Q01DX001 (ip), vehicle: Klucel (hydroxypropylcellulose) (HPC) 90 % of control | [20] 102 % of control and 88 % of control | [21] 96 % of control | [1] 103 % of control | dose: 200.0 mg/kg/injection, schedule: Q01DX001 (ip), vehicle: Klucel (hydroxypropylcellulose) (HPC) 91 % of control | [22] 97 % of control | [23] 94 % of control | [2] 94 % of control | dose: 400.0 mg/kg/injection, schedule: Q01DX001 (ip), vehicle: Klucel (hydroxypropylcellulose) (HPC) 88 % of control | dose: 400.0 mg/kg/injection, schedule: Q01DX009 (ip), vehicle: Klucel (hydroxypropylcellulose) (HPC) 94 % of control and 86 % of control | [24] 91 % of control | [3] 96 % of control

NC1=NCCS1
inactive: [25] 103 % of control | [26] 110 % of control | [13] 95 % of control and 103 % of control

COC(=O)C1=CNC=C(C(=O)OC)C1c1ccccc1
inactive: [27] 96 % of control | dose: 200.0 mg/kg/injection, schedule: Q04DX003 (ip), vehicle: saline with Tween-80 96 % of control | dose: 400.0 mg/kg/injection, schedule: Q04DX003 (ip), vehicle: saline with Tween-80 98 % of control

CC(C)CCC(=O)OC1CCC2(C)C(=CCC3C2CCC2(C)C(O)CCC32)C1 (stereo not drawn)
inactive: [14] 92 % of control | [15] 93 % of control | [16] 101 % of control

CC([NH-])=O.CC([NH-])=O.[Cl][Pt+2][Cl]
inactive: dose: 50.0 mg/kg/injection, schedule: Q01DX009 (ip), vehicle: water 120 % of control | dose: 100.0 mg/kg/injection, schedule: Q01DX009 (ip), vehicle: water 115 % of control | dose: 100.0 mg/kg/injection, schedule: Q04DX003 (ip), vehicle: water 114 % of control | dose: 200.0 mg/kg/injection, schedule: Q04DX003 (ip), vehicle: water 110 % of control

O=C(O)c1c(F)c(F)c(Oc2c(F)c(F)c(F)c(Oc3c(F)c(F)c(C(=O)O)c(F)c3F)c2F)c(F)c1F
inactive: [20] 107 % of control | [1] 100 % of control | [22] 98 % of control | [2] 97 % of control

[Cl][Fe]([Cl])([Cl])[Cl].c1ccc(-c2cc(-c3ccccc3)[o+]c(-c3ccccc3)c2)cc1
inactive: dose: 25.0 mg/kg/injection, schedule: Q01DX009 (ip), vehicle: saline with Tween-80 87 % of control | dose: 50.0 mg/kg/injection, schedule: Q01DX009 (ip), vehicle: saline with Tween-80 88 % of control | [4] 90 % of control

CCCCNC(=O)NC(C)c1ccccc1 (stereo not drawn)
inactive: [21] 112 % of control | [23] 112 % of control | [24] 105 % of control

N#CCc1cn(-c2ccccc2)nn1
inactive: dose: 9.38 mg/kg/injection, schedule: Q01DX001 (ip), vehicle: other 101 % of control | dose: 18.75 mg/kg/injection, schedule: Q01DX001 (ip), vehicle: other 96 % of control | dose: 37.5 mg/kg/injection, schedule: Q01DX001 (ip), vehicle: other 97 % of control

CC(=O)C(=Cc1ccc(Cl)c(Cl)c1)C(C)=O
inactive: [20] 100 % of control | [1] 96 % of control | [2] 96 % of control | [3] 86 % of control

Cc1ccc(N2CCCC(=O)C(O)CCC2)cc1 (stereo not drawn)
inactive: [17] 98 % of control | dose: 100.0 mg/kg/injection, schedule: Q01DX009 (ip), vehicle: saline 100 % of control | [18] 90 % of control | dose: 200.0 mg/kg/injection, schedule: Q01DX009 (ip), vehicle: saline 96 % of control | dose: 300.0 mg/kg/injection, schedule: Q01DX009 (ip), vehicle: saline 116 % of control | [19] 90 % of control

CN1CCCCC1CCN1c2ccccc2Sc2ccc(Cl)cc21 (stereo not drawn)
inactive: dose: 3.12 mg/kg/injection, schedule: Q01DX009 (ip), vehicle: saline 96 % of control | dose: 6.25 mg/kg/injection, schedule: Q01DX009 (ip), vehicle: saline 97 % of control | dose: 12.5 mg/kg/injection, schedule: Q01DX009 (ip), vehicle: saline 100 % of control | dose: 25.0 mg/kg/injection, schedule: Q01DX009 (ip), vehicle: saline 97 % of control

CCCCCCCCCCCCCCCCCCCCCCOC(=O)CCC(=O)OCCCCCCCCCCCCCCCCCCCCCC
inactive: dose: 100.0 mg/kg/injection, schedule: Q01DX009 (ip), vehicle: gum acacia 86 % of control | dose: 100.0 mg/kg/injection, schedule: Q04DX003 (ip), vehicle: gum acacia 95 % of control | dose: 200.0 mg/kg/injection, schedule: Q01DX009 (ip), vehicle: gum acacia 86 % of control | dose: 200.0 mg/kg/injection, schedule: Q04DX003 (ip), vehicle: gum acacia 92 % of control | dose: 400.0 mg/kg/injection, schedule: Q04DX003 (ip), vehicle: gum acacia 92 % of control

CCN(CC)CCOc1ccc(/C(=C(\Cl)c2ccccc2)c2ccccc2)cc1
inactive: dose: 6.25 mg/kg/injection, schedule: Q04DX002 (ip), vehicle: saline 118 % of control | dose: 12.5 mg/kg/injection, schedule: Q04DX002 (ip), vehicle: saline 118 % of control | [25] 124 % of control | [26] 121 % of control and 124 % of control | [13] 96 % of control

c1ccc(-c2oc3cc4c(cc3c2-c2ccc(OCCN3CCCC3)cc2)CCC4)cc1
inactive: [27] 90 % of control

S=P(NCCCCCCNP(=S)(N1CC1)N1CC1)(N1CC1)N1CC1
inactive: [10] 104 % of control | [11] 112 % of control | [12] 119 % of control

From PubChem BioAssay AID248 (DTP/NCI, 2004)
